According to patent publication US11813338B2, “Diagnosing and treating cancer” (The Trustees of the University of Pennsylvania, priority 2013, dated 2023):

What was measured:
ChoK [1] = experiment: ChoK activity by 14C-labeled choline uptake, TLC/autoradiography, in MDA-MB-231 cells; format: cell-based, human; settings: for ChoK inhibition (PC production as % control): MDA-MB-231 cells, increasing concentrations, 14 h following 14C-choline addition; for IC50 of ChoK inhibition: relative to positive control MN58b
Protocol: ChoK activity was assessed in triple-negative MDA-MB-231 breast cancer cells and in non-transformed MCF10a breast epithelial cells using ^14C-labeled choline uptake.
MDA-MB-231 cells and non-malignant MCF-10a cells were incubated for 14 hr with JAS239 and analyzed by TLC/autoradiography after ^14C-choline labeling.
MDA-MB-231 cells were incubated with increasing concentrations of JAS239 or JAS240. 14 h following ^14C-choline addition, cells were extracted for TLC/autoradiography analysis. […] MN58b was used as positive control.

MDA-MB-231 cells [2] = experiment: Fluorescent confocal microscopy, subcellular localization; format: cell-based, human; settings: 2 μM
Protocol: (§1) Immunofluorescence studies confirmed the specificity of ChoKα binding (FIG. 7). […] Cells were treated with a Rabbit polyclonal antibody to human ChoKα followed by a Texas Red Goat Anti-Rabbit IgG secondary antibody. Confocal images were taken using a Leica DMI6000 B microscope with channels for Texas Red (Ex: 594 nm, Em: 600-630 nm), and JAS239 (Ex: 633 nm, Em: 728-800 nm).

ChoK [3] = biological target: T1, ChoK (Homo sapiens, UniProt P35790); experiment: Choline competition: phosphorylation of 14C-labeled choline with varying choline concentrations; format: cell-based; settings: MDA-MB-231 cells, 2 hr, 10 μM
T1 construct: endogenous in cells; host or cells: MDA-MB-231 (and MCF10a) cells
Protocol: (§2) MDA-MB-231 cells were treated for 2 hr with or without 10 μM JAS239 in the presence of varying concentrations of choline. Autoradiography was used to estimate phosphorylation of ^14C-labeled choline. Fluorimetry was performed under the same cellular conditions for estimation of probe uptake (Excitation 640 nm, Emission 770 nm). These values represent a ratio of JAS239 treated vs. untreated cells, and are reported relative to control.

MDA-MB-231 cells [4] = experiment: Fluorimetry of probe uptake in MDA-MB-231 cells; format: cell-based, human
Protocol: MDA-MB-231 cells were incubated with JAS239 and the fluorescence measured (Excitation 640 nm, Emission 770 nm).
as §2

human ChoKα = biological target: T2, human ChoKα (Homo sapiens, UniProt P35790); experiment: Immunofluorescence study of ChoKα binding specificity; format: cell-based; settings: fixed permeabilized MDA-MB-231 cells, 2 μM, added before or after ChoKα antibody
T2 construct: endogenous in cells; host or cells: MDA-MB-231 cells (fixed, permeabilized)
Protocol: as §1

MDA-MB-231 tumors = experiment: In vivo fluorescence distribution in mice bearing MDA-MB-231 tumors; design: species or system athymic nude mice

T1 sequence (P35790 whole entry): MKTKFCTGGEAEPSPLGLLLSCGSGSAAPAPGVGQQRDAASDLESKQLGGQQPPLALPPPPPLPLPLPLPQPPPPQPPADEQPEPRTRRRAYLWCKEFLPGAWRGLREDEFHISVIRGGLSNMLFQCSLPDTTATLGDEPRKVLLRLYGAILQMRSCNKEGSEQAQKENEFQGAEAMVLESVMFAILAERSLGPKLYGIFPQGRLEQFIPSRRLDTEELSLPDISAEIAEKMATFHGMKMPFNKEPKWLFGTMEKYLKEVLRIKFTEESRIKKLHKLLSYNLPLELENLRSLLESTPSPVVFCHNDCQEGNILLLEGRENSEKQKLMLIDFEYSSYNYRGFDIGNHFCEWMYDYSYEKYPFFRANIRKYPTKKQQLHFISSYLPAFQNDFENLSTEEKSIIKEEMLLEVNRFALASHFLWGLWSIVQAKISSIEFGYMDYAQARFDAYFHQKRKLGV
T2 sequence (P35790 whole entry): as above

SMILES	ChoK inhibition (PC production as % control) (ChoK [1])	IC50 of ChoK inhibition (ChoK [1])	Subcellular localization (MDA-MB-231 cells [2])	Time by which ChoK inhibition is present (ChoK [1]) [min]	Sensitivity of MDA-MB-231 cells versus non-transformed MCF10a cells (ChoK [1]; 14 hr incubation, 14C-choline labeling)	Mode of ChoK inhibition (ChoK [3])	Time by which cell uptake is detectable (MDA-MB-231 cells [4]) [min]	Cell uptake versus exogenous choline concentration (MDA-MB-231 cells [4]; MDA-MB-231 cells, 10 μM, 2 hr)	Cell uptake versus probe concentration (MDA-MB-231 cells [4]; MDA-MB-231 cells, Excitation 640 nm, Emission 770 nm)	Specificity of binding to ChoKα (human ChoKα)	Tissue accumulation of probe fluorescence (MDA-MB-231 tumors; 20 nmol i.v., 15 min post-injection, Ex. 745 nm, Em 800 nm)	Fluorescence in background muscle tissue (MDA-MB-231 tumors; excised tissue, dual CCD fluorescence camera)
CN1\C(=C/C=C/C=C/C=C/C2=[N+](C)c3ccccc3C2(C)C)C(C)(C)c2ccccc21.[I-] [JAS240, 1,3,3-trimethyl-2-((1E,3E,5E)-7-((Z/E)-1,3,3-trimethylindolin-2-ylidene)hepta-1,3,5-trien-1-yl)-3H-indol-1-ium iodide]	ChoK inhibition at physiologically-relevant concentrations	comparable to MN58b	localized to the cytoplasm	–	–	–	–	–	–	–	–	–
CC1(C)C(/C=C/C=C/C=C/C=C2\N(CCO)c3ccccc3C2(C)C)=[N+](CCO)c2ccccc21 [JAS239, 1-(2-hydroxyethyl)-2-((1E,3E,5E)-7-((Z/E)-1-(2-hydroxyethyl)-3,3-dimethylindolin-2-ylidene)hepta-1,3,5-trien-1-yl)-3,3-dimethyl-3H-indol-1-ium chloride]	ChoK inhibition at physiologically-relevant concentrations	comparable to MN58b	co-localizes with the cytosolic expression of ChoK	≤ 60	greater sensitivity	competitive inhibitor of ChoK	≤ 15	independent of exogenous choline concentration	linearly proportional to concentration	specific to ChoKα	accumulate in the kidneys and tumor	no fluorescence detectable
